Experimental data reported in patent US20220168392A1 (priority 2019, published 2022).
Square brackets hold non-standard residues; d marks the D form. * marks the point of attachment. 2Nal = N[C@@H](Cc1ccc2ccccc2c1)C(=O)O; Propionyl = CCC(=O)*; Sar = CNCC(=O)O

Assays:
Assay type in all cases: in vivo, mouse
[1] = tested on: male BALB/c mice treated with carboplatin; test: Carboplatin induced thrombocytopenia, anemia, mortality and brain microangiopathic events in mice
Experimental: Materials and Methods: Increasing doses of carboplatin (i.e., 60, 70, or 80 mg/kg, i.p.) were administered on 2 consecutive days (Day 1 and Day 0) to male BALB/c mice (N=3 per group). Approximately 1 hour after carboplatin treatment on Day 0, sets of mice were treated with vehicle or RWJ-800088 (100 μg/kg, i.v.).
On Day 15, surviving mice were euthanized and blood samples were collected for the assessment of platelet and red blood cell (RBC) parameters. The brains of the mice were also isolated and preserved in 10% buffered formalin for immunohistochemical staining using anti-fibrinogen antibodies. Control mice were processed in a similar manner.

[2] = tested on: C57BL/6 mice exposed to TBI; test: 30-day survival after TBI in C57BL/6 mice
Source text: (§1) Total Body Irradiation (TBI). Mice were irradiated bilaterally in the Cobalt-60 gamma-irradiation facility at the AFRRI. These animals were placed in well-ventilated plexiglass chambers made specifically for irradiating mice. An alanine/Electron Spin Resonance (ESR) dosimetry system (American Society for Testing and Material Standard E 1607) was used to measure the dose rates in the cores of acrylic phantoms (3 inches long and 1 inch in diameter) located in all empty slots of the exposure rack in the plexiglass chamber. ESR signals were measured with a calibration curve based on standard calibration dosimeters provided by the National Institute of Standard and Technology (NIST, Gaithersburg, Md.). The calibration curve was verified by inter-comparison with the National Physical Laboratory (NPL) in the United Kingdom. The corrections applied to the measured dose rates in phantoms were for decay of the Co-60 source and for a small difference in mass-energy absorption coefficients for water and soft tissue at the Co-60 energy level. Kaplan-Meier survival curves were plotted using GraphPad software; and trend in survival is compared between vehicle and drug-treated group.
(§2) The survival efficacy of RWJ-800088 was tested in C57BL/6 (another strain of mice with different radiation sensitivity compared to CD2F1) in males and females. […] All animals in saline treated groups (males and females) died whereas there was no mortality in RWJ-800088 treated groups 30 days post-TBI. […] All animals in saline treated groups died whereas there was 92% survival observed in the RWJ-800088 (24 h pre-TBI) treated group 30 days post-TBI.
To confirm the survival benefit provided by RWJ-800088 administration following TBI in another mouse strain with difference in radiation sensitivity, C57BL/6 male mice were irradiated at 8.0 Gy (˜LD70/30) followed by administration of a single subcutaneous dose of RWJ-800088 (1 mg/kg) at 24 h after TBI. The percentage of mice surviving on day 30 post-TBI for the RWJ-800088 treated group was 83% and for the saline treated group it was only 13% (2).

[3] = tested on: C3H/HeN male mice exposed to TBI; test: 30-day survival after TBI in C3H/HeN mice; settings: C3H/HeN M, 8.75 Gy, 3 mg/kg single dose, Pre −24 hr; for Survival treatment: 3 mg/kg
Source text: as §1, §2

mice surviving TBI = test: Long-term blood cells, bone marrow and kidney staining in TBI survivors (Example 5)
Experimental: Methods: During the above Experiment 4, four studies were performed as follows:
Study A: A subset of the animals were sacrificed at 1, 6, and 12 months. Blood was collected and blood cells counted, and femurs were collected, bone marrow isolated and cultured to analyze for colony forming units;
Study B: A subset of the animals were sacrificed at 1 and 6 months. Sterna were collected from these animals, fixed, sectioned, stained with H&E (Hematoxylin and eosin), and megakaryocytes counted;
Study C: A subset of the animals were sacrificed at 1 and 6 months. Kidneys were collected from these animals, fixed, sectioned, stained with β-Catenin or E-cadherin: and
Study D: A subset of the animals were sacrificed at 1 and 6 months. Kidneys were collected from these animals, fixed, sectioned, stained with β-galactosidase, a marker of senescence.

[4] = carboplatin 70 mg/kg, RWJ-800088 100 μg/kg i.v., Day 15
[5] = C57BL/6 Both genders, 7.76 Gy, 0.3 mg/kg single dose, Post 6 hr
[6] = C57BL/6 Both genders, 7.76 Gy, 0.3 mg/kg single dose, Post 24 hr
[7] = C57BL/6 Both genders, 7.96 Gy, 0.3 mg/kg single dose, Post 6 hr
[8] = C57BL/6 Both genders, 7.96 Gy, 0.3 mg/kg single dose, Post 24 hr
[9] = C57BL/6 F, 8.75 Gy, 3 mg/kg single dose, Pre −24 hr
[10] = C57BL/6 M, 8.75 Gy, 3 mg/kg single dose, Pre −24 hr
[11] = 1 and 6 months post TBI (FIG. 25)

## methoxypolyethyleneglycol20000-propionyl-L-Isoleucyl-L-Glutamyl-Glycyl-L-Prolyl-L-Threonyl-L-Leucyl-L-Arginyl-L-Glutaminyl-L-2-Naphthylalanyl-L-Leucyl-L-Alanyl-L-Alanyl-L-Arginyl-Sarcosyl-Ne-(methoxypolyethyleneglycol20000-propionyl-L-Isoleucyl-L-Glutamyl-Glycyl-L-Prolyl-L-Threonyl-L-Leucyl-L-Arginyl-L-Glutaminyl-L-2-Naphthylalanyl-L-Leucyl-L-Alanyl-L-Alanyl-L-Arginyl-Sarcosyl-)-Lysinamide ({mPEG 20 kDa-Propionyl}-IEGPTLRQ[2Nal]LAAR[Sar]K-NH2; also: dimer: second identical mPEG-propionyl chain on Lys Nε of C-terminal lysinamide) [RWJ-800088]
[1]; Mice, carboplatin chemotherapy, whole wrapped cell: Protection against thrombocytopenia, anemia and vascular hemorrhage in the brain
  Effects: Protection against
[1]; [4]
  fibrinogen staining of brain sections (immunohistochemistry): appeared normal with the intensity of fibrinogen staining similar to vessels in the brains of control mice
  signs of hemorrhage or edema in brain: none of the brains isolated from mice co-treated with RWJ-800088 exhibited signs of hemorrhage or edema
[1]; carboplatin 60, 70 or 80 mg/kg i.p. on 2 consecutive days, RWJ-800088 100 μg/kg i.v. ~1 hour after carboplatin on Day 0
  platelet and RBC counts on Day 15: prevented the observed decreases in platelet and RBC counts
[1]; carboplatin 60-80 mg/kg i.p. x2 days, RWJ-800088 100 μg/kg i.v.
  mortality / euthanization: none of the mice treated with RWJ-800088 died or required euthanization
[2]; [5]
  Survival Differential (Treatment-Vehicle): 25%
  Survival treatment: 100%
[2]; [6]
  Survival Differential (Treatment-Vehicle): 15%
  Survival treatment: 90%
[2]; [7]
  Survival Differential (Treatment-Vehicle): 45%
  Survival treatment: 100%
[2]; [8]
  Survival Differential (Treatment-Vehicle): 20%
  Survival treatment: 75%
[2]; [9]
  Survival Differential (Treatment-Vehicle): 100%
  Survival treatment: 100%
[2]; [10]
  Survival Differential (Treatment-Vehicle): 100%
  Survival treatment: 100%
[2]; C57BL/6 male and female, 8.75 Gy (LD100/30), 3 mg/kg 24 h prior to irradiation
  mortality 30 days post-TBI: no mortality
[2]; C57BL/6 male, 8.0 Gy (~LD70/30), single SC dose 1 mg/kg at 24 h after TBI
  percentage of mice surviving on day 30 post-TBI: 83%
[3]
  Survival Differential (Treatment-Vehicle): 92%
  Survival treatment: 92%
[3]; listed as TPOm
  Survival treatment: 92%
Mice surviving TBI; [11]
  E-cadherin expression in kidney vs vehicle: higher
  β-Catenin expression in kidney: decreases β-Catenin expression
Mice surviving TBI; 1 and 6 months post TBI (FIG. 26, 27)
  β-galactosidase staining in kidney (marker of senescence): protects from cellular senescence
Mice surviving TBI; 1 and 6 months post irradiation
  megakaryocytes in sterna vs vehicle (saline): significantly higher numbers of megakaryocytes
Mice surviving TBI; 6 months and 12 months post TBI
  blood cell types (white blood cells, lymphocytes, neutrophils, platelets, red blood cells) vs vehicle: increased in number
Mice surviving TBI; 6 months post TBI (FIG. 23)
  colony forming units in isolated bone marrow vs vehicle: more colony forming units
